Assay results from the supplement of paper PMC11451515.

Test system: P12-Ichikawa
Assay: cell viability relative to DMSO control; higher = less cytotoxic
Conditions: 48 h
Outline: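 NOMO1 or SEM (500 cells/well) or P12-Ichikawa (1000 cells/well) leukemia cells were adapted for at least four passages in each medium. They were seeded in 1536-well plates (5 μl) and pin-dosed with library compounds in DMSO over an 11-point threefold series, 47 μM to 0.79 nM. CellTiter-Glo One luminescence was read after 48 h at 37°C. Viability is the per-plate percentage relative to DMSO wells, with cell-free wells as background.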

[1] = HPLM + 10% dialyzed FBS, 0.000781 µM
[2] = HPLM + 10% dialyzed FBS, 0.00234 µM
[3] = HPLM + 10% dialyzed FBS, 0.00702 µM
[4] = HPLM + 10% dialyzed FBS, 0.0211 µM
[5] = HPLM + 10% dialyzed FBS, 0.0632 µM
[6] = HPLM + 10% dialyzed FBS, 0.19 µM
[7] = HPLM + 10% dialyzed FBS, 0.569 µM
[8] = HPLM + 10% dialyzed FBS, 1.71 µM
[9] = HPLM + 10% dialyzed FBS, 5.12 µM
[10] = HPLM + 10% dialyzed FBS, 15.4 µM
[11] = HPLM + 10% dialyzed FBS, 46.1 µM
[12] = RPMI 5 mM glucose + 10% FBS, 0.000781 µM
[13] = RPMI 5 mM glucose + 10% FBS, 0.00234 µM
[14] = RPMI 5 mM glucose + 10% FBS, 0.00702 µM
[15] = RPMI 5 mM glucose + 10% FBS, 0.0211 µM
[16] = RPMI 5 mM glucose + 10% FBS, 0.0632 µM
[17] = RPMI 5 mM glucose + 10% FBS, 0.19 µM
[18] = RPMI 5 mM glucose + 10% FBS, 0.569 µM
[19] = RPMI 5 mM glucose + 10% FBS, 1.71 µM
[20] = RPMI 5 mM glucose + 10% FBS, 5.12 µM
[21] = RPMI 5 mM glucose + 10% FBS, 15.4 µM
[22] = RPMI 5 mM glucose + 10% FBS, 46.1 µM
[23] = RPMI 5 mM glucose + 10% dialyzed FBS, 0.000781 µM
[24] = RPMI 5 mM glucose + 10% dialyzed FBS, 0.00234 µM
[25] = RPMI 5 mM glucose + 10% dialyzed FBS, 0.00702 µM
[26] = RPMI 5 mM glucose + 10% dialyzed FBS, 0.0211 µM
[27] = RPMI 5 mM glucose + 10% dialyzed FBS, 0.0632 µM
[28] = RPMI 5 mM glucose + 10% dialyzed FBS, 0.19 µM
[29] = RPMI 5 mM glucose + 10% dialyzed FBS, 0.569 µM
[30] = RPMI 5 mM glucose + 10% dialyzed FBS, 1.71 µM
[31] = RPMI 5 mM glucose + 10% dialyzed FBS, 5.12 µM
[32] = RPMI 5 mM glucose + 10% dialyzed FBS, 15.4 µM
[33] = RPMI 5 mM glucose + 10% dialyzed FBS, 46.1 µM

Row | Structure (SMILES) | cell viability [1] | cell viability [2] | cell viability [3] | cell viability [4] | cell viability [5] | cell viability [6] | cell viability [7] | cell viability [8] | cell viability [9] | cell viability [10] | cell viability [11] | cell viability [12] | cell viability [13] | cell viability [14] | cell viability [15] | cell viability [16] | cell viability [17] | cell viability [18] | cell viability [19] | cell viability [20] | cell viability [21] | cell viability [22] | cell viability [23] | cell viability [24] | cell viability [25] | cell viability [26] | cell viability [27] | cell viability [28] | cell viability [29] | cell viability [30] | cell viability [31] | cell viability [32] | cell viability [33]
1 | OCCCNc1cc(-c2ccnc(Nc3cccc(Cl)c3)n2)ccn1 | 98% | 99.8% | 107% | 109% | 110% | 113% | 65.4% | 13.6% | 10.3% | 8.26% | 7.93% | 102% | 105% | 105% | 104% | 118% | 87.9% | 55.6% | 12.1% | 7.63% | 8.26% | 5.79% | 94.9% | 106% | 106% | 119% | 113% | 100% | 43.7% | 11.9% | 10.5% | 11% | 9.06%
2 | N[C@@H](CC(=O)N1CCn2c(nnc2C(F)(F)F)C1)Cc1cc(F)c(F)cc1F | 100% | 105% | 104% | 113% | 109% | 104% | 102% | 103% | 98.2% | 97% | 94.7% | 91% | 103% | 97.3% | 95.8% | 99.2% | 99.7% | 92.8% | – | 95.4% | 89.5% | 88.3% | 98.4% | 94.5% | 97.3% | 100% | 100% | 84.9% | 90.9% | 89.4% | 91.4% | 91.3% | 88%
3 | COC(=O)[C@@H](N)CCCNC(=N)N[N+](=O)[O-] | 94.6% | 102% | 104% | 98.4% | 111% | 98.1% | 110% | 107% | 107% | 103% | 115% | 85.4% | 96.7% | 99% | 94% | 105% | 98.5% | 114% | 103% | 105% | 99.3% | 105% | 85.9% | 93% | 90.7% | 97.5% | 99.2% | 91.5% | 99.7% | 98.6% | 95.9% | 92% | 94%
4 | COc1cc(OC)c(NC(=O)Nc2cc(C)on2)cc1Cl | 94.9% | 98.8% | 110% | 99.6% | 101% | 106% | 102% | 106% | 107% | 110% | 106% | 90.3% | 95.9% | 96.8% | 98.2% | 108% | 104% | 95.5% | 106% | 107% | 102% | 101% | 98.1% | 90.7% | 97% | 97.8% | 96.5% | 96.5% | 106% | 102% | 96.2% | 91.7% | 92%
5 | CN(C)c1ccc2cc(C(=O)N[C@@H](CCCNC(=N)CCl)C(=O)NCc3ccccc3)ccc2c1 | 103% | 113% | 105% | 113% | 112% | 103% | 108% | 107% | 104% | 93.9% | 19% | 121% | 111% | 97.9% | 115% | 106% | 116% | 122% | 116% | 104% | 93% | 9.92% | 109% | 108% | 108% | 109% | 110% | 101% | 99.6% | 97.1% | 106% | 92% | 8.85%
6 | COC[C@H]1OC(=O)C2=COC3=C2[C@@]1(C)\C4=C(\[C@@H]5CC[C@H](O)[C@@]5(C)C[C@H]4OC(C)=O)C3=O | 105% | 120% | 85.6% | 117% | 120% | 123% | 127% | 123% | 121% | 109% | 68.2% | 104% | 121% | 67.4% | 118% | 114% | 129% | 128% | 124% | 117% | 101% | 81.6% | 100% | 115% | 84.9% | 120% | 131% | 126% | 132% | 130% | 116% | 88.8% | 58.9%
7 | N#CC(=C(/N)Sc1ccccc1N)/C(C#N)=C(\N)Sc1ccccc1N | 115% | 121% | 120% | 128% | 131% | 125% | 131% | 120% | 126% | 124% | 111% | – | – | – | – | – | – | – | – | – | – | – | – | – | – | – | – | – | – | – | – | – | –
8 | C=CCn1c(=O)c2cnc(Nc3ccc(N4CCN(C)CC4)cc3)nc2n1-c1cccc(C(C)(C)O)n1 | 120% | 116% | 121% | 125% | 110% | 111% | 99.3% | 43.7% | 17% | 15.9% | 17.4% | – | – | – | – | – | – | – | – | – | – | – | – | – | – | – | – | – | – | – | – | – | –
9 | O=C(NNC(=O)c1ccc(CN[S+](=O)([O-])c2ccc(F)c(Cl)c2)cc1)c1ccccc1 | 97.4% | 106% | 104% | 99% | 109% | 107% | 107% | 109% | 113% | 105% | 113% | 99.8% | 101% | 98.7% | 96.5% | 112% | 100% | 106% | 98.6% | 91.6% | 114% | 105% | 87% | 98.3% | 98.3% | 102% | 103% | 98.1% | 102% | 103% | 103% | 107% | 101%
10 | COc1ccc2c(c1OC)CN1CCc3cc4c(cc3C1C2)OCO4 (stereo not drawn) | 94.5% | 96.2% | 101% | 104% | 101% | 99.8% | 97.2% | 77% | 15.9% | 6.51% | 6.63% | 86.1% | 87% | 92.7% | 93.9% | 94% | 89% | 86.7% | 53.6% | 17.7% | 5.68% | 4.82% | 84.8% | 87.7% | 92.6% | 94.4% | 92.5% | 83.2% | 83.5% | 52.9% | 13.4% | 7.72% | 6.88%
11 | NC\1=N\C(=O)N(\C=C1)[C@H]\2[C@H](O)[C@H](O)C(=C2F)\CO | 95.2% | 106% | 104% | 105% | 105% | 106% | 104% | 60% | 28% | 19.3% | 16.5% | 89.4% | 96.8% | 96.3% | 106% | 103% | 114% | 101% | 95.7% | 47.8% | 29.1% | 16.9% | 91.8% | 114% | 114% | 116% | 115% | 108% | 100% | 89.4% | 67.9% | 23.4% | 11.4%
12 | C[C@@H]1CC[C@@]2(OC1)OC1CC3C4CC=C5CC(O)CCC5(C)C4CCC3(C)C1[C@@H]2C (stereo partly drawn) | 101% | 105% | 97% | 104% | 107% | 106% | 112% | 106% | 110% | 25.8% | 6.49% | 98.9% | 99.9% | 102% | 106% | 106% | 99.3% | 104% | 108% | 118% | 86.8% | 36.4% | 92% | 96.3% | 92.3% | 99.3% | 97% | 106% | 105% | 105% | 119% | 73.8% | 16.8%
13 | CN(C)CCN(Cc1ccc(Cl)cc1)c1ccccn1.Cl | 89% | 97.1% | 95.9% | 97.1% | 96.9% | 94.9% | 97.5% | 101% | 95.2% | 96.4% | 101% | 80.3% | 80.4% | 85.4% | 95.1% | 80.5% | 87.9% | 90.4% | 87.7% | 90.4% | 85.2% | 82.4% | 83% | 82.3% | 84.4% | 87.9% | 84.2% | 79.2% | 82.4% | 80.3% | 83.3% | 78.8% | 73.2%
14 | CC(C)(C)NC(=O)[C@H]1CC[C@H]2[C@@H]3CC[C@H]4NC(=O)\C=C/[C@]4(C)[C@H]3CC[C@]12C | 101% | 109% | 106% | 107% | 102% | 103% | 111% | 107% | 109% | 27.7% | 12.7% | 83.5% | 104% | 103% | 108% | 109% | 109% | 109% | 115% | 103% | 31.6% | 10.8% | 94.1% | 100% | 102% | 100% | 107% | 112% | 108% | 115% | 113% | 81.4% | 35.6%
15 | CNCC(O)C(O)C(O)C(O)CO.O=C(O)c1ccc(-c2cc3cccnc3c(-c3ccc4nonc4c3)n2)cc1 | 105% | 112% | 115% | 106% | 119% | 116% | 120% | 119% | 112% | 117% | 99.4% | 113% | 107% | 122% | 107% | 123% | 127% | 122% | 116% | 121% | 109% | 102% | 104% | 114% | 111% | 104% | 115% | 114% | 119% | 120% | 113% | 104% | 89.4%
16 | Cc1ccc(-c2ncn(-c3ccc(Nc4nccc(-c5cccc(N6CCOCC6)c5)n4)cc3)n2)cn1 | 93.9% | 94.5% | 94.8% | 98.2% | 96.1% | 90.7% | 5.93% | 5.41% | 5.42% | 4.29% | 4.16% | 92.2% | 92.8% | 90.2% | 89.8% | 94.5% | 83.6% | 3.59% | 3.74% | 2.21% | 3.15% | 3.43% | 82.2% | 87.5% | 80.8% | 86.6% | 87.6% | 96.3% | 3.87% | 3.59% | 2.81% | 2.93% | 2.94%
